Assay results as given in patent publication US20050129769A1, “Polymeric articles for carrying therapeutic agents” (priority 2002, published 2005).

Legend:
[1] = tested on: chorioallantoic membranes (CAM) of 7-days old chicken embryos incubated with murine mammary carcinoma Cl-66 cells; conditions: 3-day incubation
Description: The chorioallantoic membranes (CAM) of 7-days old chicken embryos were incubated with each 10^5 cells of the murine mammary carcinoma Cl-66 24 hours prior to a 3-day incubation with disks containing either 5 μg of Doxorubicin, 5 μg of Dox equivalent in nanoparticles (14/1/1 IMMA/NOBA/NaA, PEG3400), 5 μg of Dox equivalent in nanoparticles functionalized with cyclic-RGD (14/1/1 IMMA/NOBA/NaA, PEG3400-cRGD), or PBS as a control. Linker attachment to nanoparticles was made as described in Example 31.
After 3 days, CAMs were excised and photographed for analysis.

[2] = tested on: C-32 cells (human melanoma); assay: In vitro cytotoxicity, MTT cell proliferation assay; type: cell-based; conditions: 48 hours, free drug
Description: The toxicity of Dox linked to the nanoarticles via the amide bond was tested in an in vitro toxicity assay against C-32 cells (human melanoma).
In a 96-well tissue culture microtiter plate, 10,000 cells of C-32 per well in culture medium were allowed to attach for 2 hours prior to incubation with varying concentrations of Dox-amide nanoarticle, and free Dox. Cells were incubated at 37° C., 5% CO2 in a humidified chamber for 48 hours. Cell proliferation was assayed using the calorimetric MTT kit (CT01, Chemicon, Int.).
The toxicity of Dox linked to the nanoarticles via the hydrazone bond was tested in an in vitro toxicity assay against C-32 cells (human melanoma).
In a 96-well tissue culture microtiter plate, 10,000 cells of C-32 per well in culture medium were allowed to attach for 2 hours prior to incubation with varying concentrations of Dox-hydrazone nanoarticle, and free Dox. Cells were incubated at 37° C., 5% CO2 in a humidified chamber for 48 hours. Cell proliferation was assayed using the calorimetric MTT kit (CT01, Chemicon, Int.).

[3] = tested on: CL66 murine mammary carcinoma cells
Description: The efficacy and toxicity of nano-article-conjugated doxorubicin (Dox-NP) was compared to doxorubicin (Dox) and a saline control. Dox-NP of composition 14/1/1 IMMA/CiBA/NaA, 5.6 w % Dox were made following procedures described in Example 16.
CL66 murine mammary carcinoma cells were grown to 80-90% confluence in supplemented media, trypsinized for 2 min at 37° C. with 1× trypsin, rinsed with Hank's Balanced Salt Solution (w/out calcium and magnesium) and resuspended at 1×10^6 cell/ml, with 0.1 ml injected into the mammary fat pad of female Balb/C mice.
Lyophilized Dox-NP was reconstituted in sterile PBS at the appropriate concentration and stored at 2-8° C. for at least 1 hour, or overnight. Excipient Dox was diluted in PBS at the appropriate concentrations. 200 μL was injected intravenously through the tail vein of the mice on days 13, 15, and 18 following tumor challenge. Dox was injected at 225 μg/animal, while Dox-NP was injected at a nano-article level sufficient to deliver Dox at 250, 420 and 560 μg/animal.
Tumor volumes were measured superficially in two dimensions. Weight loss (or gain) and survival were recorded.

Structure (SMILES): COc1cccc2c1C(=O)c1c(O)c3c(c(O)c1C2=O)C[C@@](O)(C(=O)CO)C[C@@H]3O[C@H]1C[C@H](N)[C@H](O)[C@H](C)O1 [Doxorubicin]
- reduction of the number of blood vessels / blood vessel distribution around the disk ([1]; disks with 5 μg Dox or Dox equivalent): most effective in reducing the number of blood vessels
- embryos died during treatment ([1]; disks with 5 μg): 3 out of 10
- 50% growth inhibition [2]: 0.8 µg/mL
- survival time ([3]; 225 μg/animal Dox compared with the higher doses of Dox-NP): slightly longer survival time
- toxicity ([3]; 225 μg/animal i.v. on days 13, 15, 18): toxic
